Data as given in US9695155B2, “Herbicidal substituted pyrimidinyloxy benzene compounds” (E. I. DU PONT DE NEMOURS AND COMPANY, priority 2013, dated 2017).

Assays:
[1] = tested on: morningglory; experiment: Test A postemergence; format: in vivo, Ipomoea spp.; details: Ipomoea, post-emergence, 240 h
Method in brief: (§1)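 Pre- and postemergence greenhouse screen. Soil: loam + sand. Spray carrier: solvent mixture, non-phytotoxic, with surfactant. Post timing at 1–2 leaves, height 2–10 cm. Readout: visual injury on a 0–100 scale roughly 10 days after application, untreated plants as reference.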

[2] = tested on: johnsongrass; experiment: Test C preemergence; format: in vivo, Sorghum halepense; details: Sorghum halepense, pre-emergence
Method in brief: (§2)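 Whole-plant greenhouse test with surfactant-containing solvent formulation, applied preemergence to sown loam–sand pots or postemergence to 2–18 cm plants. Scored by eye 13 to 15 days on, 0–100 scale.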

[3] = tested on: velvetleaf; experiment: Test A preemergence; format: in vivo, Abutilon theophrasti
Method in brief: as §1

[4] = tested on: wheat; experiment: Test A preemergence; format: in vivo, Triticum aestivum
Method in brief: as §1

[5] = tested on: waterhemp; experiment: Test C postemergence; format: in vivo, Amaranthus rudis; details: Amaranthus tuberculatus, post-emergence
Method in brief: as §2

[6] = tested on: pigweed; experiment: Test C postemergence; format: in vivo, Amaranthus retroflexus; details: Amaranthus retroflexus, post-emergence
Method in brief: as §2

[7] = tested on: wheat; experiment: Test A postemergence; format: in vivo, Triticum aestivum; details: Triticum aestivum, post-emergence, 240 h
Method in brief: as §1

[8] = tested on: morningglory; experiment: Test A preemergence; format: in vivo, Ipomoea spp.
Method in brief: as §1

[9] = tested on: ragweed; experiment: Test C preemergence; format: in vivo, Ambrosia elatior; details: Ambrosia artemisiifolia, pre-emergence
Method in brief: as §2

[10] = tested on: sedge, umbrella; experiment: Test B flooded paddy test; format: in vivo, Cyperus difformis; details: Cyperus difformis, Flood, 250 g ai/ha; 0 to 100 scale where 0 is no effect and 100 is complete control; read-out: Plant response rating, Sedge, Umbrella
Method in brief: (§3)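 Flooded to 3 cm at the 2-leaf stage, pots received compound through the paddy water and were kept at that depth under greenhouse conditions. After 13–15 days, effect was rated by eye relative to controls, 0 = none and 100 = complete control.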

[11] = tested on: blackgrass; experiment: Test C preemergence; format: in vivo, Alopecurus myosuroides; details: Alopecurus myosuroides, pre-emergence
Method in brief: as §2

[12] = tested on: velvetleaf; experiment: Test A postemergence; format: in vivo, Abutilon theophrasti; details: Abutilon theophrasti, post-emergence, 240 h
Method in brief: as §1

[13] = tested on: Italian ryegrass; experiment: Test C preemergence; format: in vivo, Lolium multiflorum; details: Lolium multiflorum, pre-emergence
Method in brief: as §2

[14] = tested on: wheat, winter; experiment: Test C preemergence; format: in vivo, Triticum aestivum; details: Triticum aestivum, pre-emergence
Method in brief: as §2

[15] = tested on: Heteranthera limosa; experiment: Test B flooded paddy test; format: in vivo; details: Heteranthera limosa, Flood, 250 g ai/ha; 0 to 100 scale where 0 is no effect and 100 is complete control; read-out: Plant response rating, Ducksalad
Method in brief: as §3

[16] = tested on: velvetleaf; experiment: Test C preemergence; format: in vivo, Abutilon theophrasti; details: Abutilon theophrasti, pre-emergence
Method in brief: as §2

[17] = 125 g ai/ha, 0 to 100 scale where 0 is no effect and 100 is complete control

N#Cc1cccc(Oc2ncc(Br)cn2)c1-n1cc(C(F)(F)F)cn1 [Compound 59, 3-[(5-bromo-2-pyrimidinyl)oxy]-2-[4-(trifluoromethyl)-1H-pyrazol-1-yl]benzonitrile]
pest or weed control at 125 g/ha ([1]; 125 g ai/ha, 0 to 100 scale where 0 is no effect and 100 is complete control, read-out: Plant response rating, Morningglory): 90% | pest or weed control at 500 g/ha ([1]; 500 g ai/ha, 0 to 100 scale, 0 no effect, 100 complete control, read-out: Plant response rating Morningglory): 100% | pest or weed control at 62 g/ha ([2]; 62 g ai/ha, preemergence, scale 0 (no effect) to 100 (complete control), read-out: Johnsongrass plant response rating): 85% | pest or weed control at 125 g/ha ([2]; 125 g ai/ha, preemergence, scale 0 (no effect) to 100 (complete control), read-out: Johnsongrass plant response rating): 98% | pest or weed control at 250 g/ha ([2]; 250 g ai/ha, preemergence, scale 0 (no effect) to 100 (complete control), read-out: Johnsongrass plant response rating): 100% | pest or weed control at 31 g/ha ([2]; Preemergence, 31 g ai/ha, scale 0 to 100, 0 no effect, 100 complete control, read-out: Plant response rating, Johnsongrass): 60% | Plant response rating, Velvetleaf [3, 17]: 100 | pest or weed control at 500 g/ha ([3]; Abutilon theophrasti, pre-emergence, 240 h, 500 g ai/ha, 0 to 100 scale, 0 no effect, 100 complete control, approx. 10 days, read-out: Velvetleaf plant response rating): 100% | Plant response rating, Wheat [4, 17]: 20 | plant injury at 500 g/ha ([4]; Triticum aestivum, pre-emergence, 240 h, 500 g ai/ha, 0 to 100 scale, 0 no effect, 100 complete control, approx. 10 days, read-out: Wheat plant response rating): 40% | pest or weed control at 125 g/ha ([5]; 125 g ai/ha, postemergence, read-out: Plant response rating (0 to 100), Waterhemp): 90% | pest or weed control at 250 g/ha ([5]; 250 g ai/ha, postemergence, read-out: Plant response rating (0 to 100), Waterhemp): 98% | pest or weed control at 31 g/ha ([5]; Postemergence, 31 g ai/ha, scale 0 to 100 (0 no effect, 100 complete control), 13 to 15 days, read-out: Plant response rating, Waterhemp): 85% | pest or weed control at 62 g/ha ([5]; Postemergence, 62 g ai/ha, scale 0 to 100 (0 no effect, 100 complete control), read-out: Plant response rating, Waterhemp): 85% | pest or weed control at 125 g/ha ([6]; 125 g ai/ha, postemergence, read-out: Plant response rating (0 to 100), Pigweed): 95% | pest or weed control at 250 g/ha ([6]; 250 g ai/ha, postemergence, read-out: Plant response rating (0 to 100), Pigweed): 98% | pest or weed control at 31 g/ha ([6]; Postemergence, 31 g ai/ha, scale 0 to 100 (0 no effect, 100 complete control), 13 to 15 days, read-out: Plant response rating, Pigweed): 80% | pest or weed control at 62 g/ha ([6]; Postemergence, 62 g ai/ha, scale 0 to 100 (0 no effect, 100 complete control), read-out: Plant response rating, Pigweed): 90% | plant injury at 125 g/ha ([7]; 125 g ai/ha, 0 to 100 scale where 0 is no effect and 100 is complete control, read-out: Plant response rating, Wheat): 70% | plant injury at 500 g/ha ([7]; 500 g ai/ha, 0 to 100 scale, 0 no effect, 100 complete control, read-out: Plant response rating Wheat): 100% | Plant response rating, Morningglory [8, 17]: 80 | pest or weed control at 500 g/ha ([8]; Ipomoea, pre-emergence, 240 h, 500 g ai/ha, 0 to 100 scale, 0 no effect, 100 complete control, approx. 10 days, read-out: Morningglory plant response rating): 100% | pest or weed control at 62 g/ha ([9]; 62 g ai/ha, preemergence, scale 0 (no effect) to 100 (complete control), read-out: Ragweed plant response rating): 95% | pest or weed control at 125 g/ha ([9]; 125 g ai/ha, preemergence, scale 0 (no effect) to 100 (complete control), read-out: Ragweed plant response rating): 100% | pest or weed control at 250 g/ha ([9]; 250 g ai/ha, preemergence, scale 0 (no effect) to 100 (complete control), read-out: Ragweed plant response rating): 100% | pest or weed control at 31 g/ha ([9]; Preemergence, 31 g ai/ha, scale 0 to 100, 0 no effect, 100 complete control, read-out: Plant response rating, Ragweed): 90% | pest or weed control at 250 g/ha [10]: 90% | pest or weed control at 62 g/ha ([11]; 62 g ai/ha, preemergence, scale 0 (no effect) to 100 (complete control), read-out: Blackgrass plant response rating): 85% | pest or weed control at 125 g/ha ([11]; 125 g ai/ha, preemergence, scale 0 (no effect) to 100 (complete control), read-out: Blackgrass plant response rating): 90% | pest or weed control at 250 g/ha ([11]; 250 g ai/ha, preemergence, scale 0 (no effect) to 100 (complete control), read-out: Blackgrass plant response rating): 90% | pest or weed control at 31 g/ha ([11]; Preemergence, 31 g ai/ha, scale 0 to 100, 0 no effect, 100 complete control, read-out: Plant response rating, Blackgrass): 5% | pest or weed control at 125 g/ha ([12]; 125 g ai/ha, 0 to 100 scale where 0 is no effect and 100 is complete control, read-out: Plant response rating, Velvetleaf): 100% | pest or weed control at 500 g/ha ([12]; 500 g ai/ha, 0 to 100 scale, 0 no effect, 100 complete control, read-out: Plant response rating Velvetleaf): 100% | pest or weed control at 62 g/ha ([13]; 62 g ai/ha, preemergence, scale 0 (no effect) to 100 (complete control), read-out: Ryegrass, Italian plant response rating): 85% | pest or weed control at 125 g/ha ([13]; 125 g ai/ha, preemergence, scale 0 (no effect) to 100 (complete control), read-out: Ryegrass, Italian plant response rating): 90% | pest or weed control at 250 g/ha ([13]; 250 g ai/ha, preemergence, scale 0 (no effect) to 100 (complete control), read-out: Ryegrass, Italian plant response rating): 90% | pest or weed control at 31 g/ha ([13]; Preemergence, 31 g ai/ha, scale 0 to 100, 0 no effect, 100 complete control, read-out: Plant response rating, Ryegrass, Italian): 50% | plant injury at 62 g/ha ([14]; 62 g ai/ha, preemergence, scale 0 (no effect) to 100 (complete control), read-out: Wheat plant response rating): 50% | plant injury at 125 g/ha ([14]; 125 g ai/ha, preemergence, scale 0 (no effect) to 100 (complete control), read-out: Wheat plant response rating): 85% | plant injury at 250 g/ha ([14]; 250 g ai/ha, preemergence, scale 0 (no effect) to 100 (complete control), read-out: Wheat plant response rating): 90% | plant injury at 31 g/ha ([14]; Preemergence, 31 g ai/ha, scale 0 to 100, 0 no effect, 100 complete control, read-out: Plant response rating, Wheat): 0% | pest or weed control at 250 g/ha [15]: 80% | pest or weed control at 62 g/ha ([16]; 62 g ai/ha, preemergence, scale 0 (no effect) to 100 (complete control), read-out: Velvetleaf plant response rating): 100% | pest or weed control at 125 g/ha ([16]; 125 g ai/ha, preemergence, scale 0 (no effect) to 100 (complete control), read-out: Velvetleaf plant response rating): 100% | pest or weed control at 250 g/ha ([16]; 250 g ai/ha, preemergence, scale 0 (no effect) to 100 (complete control), read-out: Velvetleaf plant response rating): 100% | pest or weed control at 31 g/ha ([16]; Preemergence, 31 g ai/ha, scale 0 to 100, 0 no effect, 100 complete control, read-out: Plant response rating, Velvetleaf): 100%
